These results are taken from patent publication US12583870B2, “Azaheteroaryl compound and application thereof” (SHANGHAI BLUERAY BIOPHARMA CO., LTD., priority 2019, dated 2026).

Molecules are shown by their SMILES.

In experiment [1] the test system is trimethylation level of histone H3K27 in G401 cells. Kind of experiment: ELISA (H3K27 trimethylation) analysis in G401 cells. The class given is cell-based. The following applies: Homo sapiens, G-401, 72 hours, H3K27me3 standardized to H3. The method in brief:
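Cells exposed 72 h to 10-point 3-fold dilutions, top 10 μM, 0.5% final DMSO. Acid-extracted histones assayed by ELISA (ECL) for H3K27me3, normalized to total H3 and to DMSO control; IC50 from dose-response fit.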
(In general: In an ELISA, binding on a coated surface is turned into a signal by an enzyme label.)

Experiment [2] deals with T1, EED protein (His6-tagged full-length) binding to H3K27me3 polypeptide (Homo sapiens, UniProt O75530).
T1 construct: His6-tagged full-length EED protein (441 amino acids)
Kind of experiment: AlphaScreen evaluation of blocking the binding of EED to H3K27Me3. The following applies: EED 60 nM, biotinylated H3K27me3 75 nM, 30 minutes incubation. Put shortly: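 His6-tagged full-length EED (60 nM working stock) and biotin-H3K27me3 peptide aa 19–33 (75 nM working stock) incubated 30 min RT with 9-point 3-fold compound series in 25 mM HEPES pH 8.0, 50 mM NaCl, 0.015% Tween 20, 0.5% BSA. Ni-chelate acceptor and streptavidin donor beads (5 μg/mL each), 1 h dark; IC50 from dose-response fit. Biotin-(His)6 counterscreen checked signal interference.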
For orientation: Bead proximity is the source of the signal in Alpha formats.

Experiment [3] deals with KARPAS-422 cells. Nature of the experiment: Cell proliferation analysis, KARPAS-422, 13 days, CellTiter-Glo. It counts as cell-based. The following applies: Homo sapiens, 312 h. Put shortly:
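KARPAS-422 cells were treated with PRC2 inhibitors over 9 three-fold dilutions from 10 μM top (0.5% DMSO, duplicates) in RPMI-1640 with 15% FBS at 37 °C. Every 3–4 days cells were counted and reseeded at 1×10^4/well with fresh compound. Viability was read by CellTiter-Glo luminescence on day 13.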

T1 sequence (O75530 whole entry): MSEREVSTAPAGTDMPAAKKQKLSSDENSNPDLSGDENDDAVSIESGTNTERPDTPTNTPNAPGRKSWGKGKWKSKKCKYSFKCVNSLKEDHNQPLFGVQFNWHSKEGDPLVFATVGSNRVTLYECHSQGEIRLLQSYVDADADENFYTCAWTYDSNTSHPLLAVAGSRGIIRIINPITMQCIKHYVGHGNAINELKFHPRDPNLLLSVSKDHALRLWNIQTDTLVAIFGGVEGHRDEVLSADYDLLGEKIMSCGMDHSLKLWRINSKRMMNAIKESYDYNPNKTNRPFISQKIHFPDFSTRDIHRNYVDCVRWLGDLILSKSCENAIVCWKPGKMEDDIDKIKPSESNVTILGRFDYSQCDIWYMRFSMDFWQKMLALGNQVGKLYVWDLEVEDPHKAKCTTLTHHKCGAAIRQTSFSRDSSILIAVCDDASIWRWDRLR

What is called IC50 is the concentration that gives 50% inhibition. A low value points to higher potency. As for `CC1=CS(=O)(=O)c2ccc(-c3cnc(NCc4c(F)ccc5c4[C@H]4C[C@H]4O5)n4cnnc34)cc21` [5-(5-((((1aR,6bR)-5-fluoro-1a,6b-dihydro-1H-cyclopropa[b]benzofuran-6-yl)methyl)amino)-[1,2,4]triazolo[4,3-c]pyrimidin-8-yl)-3-methylbenzo[b]thiophene 1,1-dioxide], the IC50 in experiment [1] was 0.0136 µM; in experiment [2], 0.0049 µM; in experiment [3] it was 0.0243 µM.
